Reference: US20030134292A1, “Thermostable DNA polymerases and methods of making same” (priority 2001, published 2003)

B1: T4 gene 32 Protein: T4 gene 32 Protein (protein, UniProt P03695 1-301, looked up)
Single-stranded DNA-binding …: MFKRKSTAELAAQMAKLNGNKGFSSEDKGEWKLKLDNAGNGQAVIRFLPSKNDEQAPFAILVNHGFKKNGKWYIETCSSTHGDYDSCPVCQYISKNDLYNTDNKEYSLVKRKTSYWANILVVKDPAAPENEGKVFKYRFGKKIWDKINAMIAVDVEMGETPVDVTCPWEGANFVLKVKQVSGFSNYDESKFLNQSAIPNIDDESFQKELFEQMVDLSEMTSKDKFKSFEELNTKFGQVMGTAVMGGAAATAAKKADKVADDLDAFNVDDFNTKTEDDFMSSSSGSSSSADDTDLDDLLNDL

What was measured:
Format in all cases: biochemical
[1] = biological target: T1, Tth Δ273 F668Y (polymerase C) (Thermus thermophilus, UniProt P52028, F274M/F669Y); assay: DNA polymerase activity assay with detergent or additive, Tth Δ273 F668Y purified without detergent
T1 construct: made in house; host or cells: E. coli
Procedure: (§1) DNA polymerase activity was measured by running reactions of 50 μL containing 25 mM TAPS (tris-hydroxymethyl-methylaminopropane sulfonic acid) buffer, pH 9.3 (measured at 25° C.), 50 mM KCl, 2 mM MgCl2, 1 mM 2-mercaptoethanol, 0.2 mM each of dGTP, dCTP, dTTP, 0.2 mM [α-^33P]-dATP (0.05-0.1 Ci/mmol) and 0.4 mg/mL activated salmon sperm DNA. The reaction mixture (45 μL) was pre-heated to 74° C. and diluted polymerase (5 μL) added with thorough mixing. After 10 minutes of further incubation at 74° C., the reaction was stopped by the addition of 10 μL of 60 mM EDTA and the entire mixture placed at 0° C. Acid-precipitable radioactivity was determined on an aliquot ([…]) by diluting with 1 ml of 2 mM EDTA containing 0.05 mg/ml salmon sperm DNA and adding 1 mL of 20% (w/v) trichloroacetic acid, 2% (w/v) sodium pyrophosphate (Na4P2O7 10H2O) and incubating on ice for at least 15 minutes. Precipitated DNA was collected by filtering through 2.4 cm GFC filter disks (Schleichter and Schuell) and washed 7 times with 5ml of with 1 N HCl, 0.1 M sodium pyrophosphate. The filter was placed in 3 ml of aqueous scintillation counting fluid and ^33P-specific radioactivity determined by scintillation counting.
(§2) For the assays presented in Tables 5 and 6, the polymerase was diluted 10-5000 fold in a buffer containing 25 mM Tris-HCl pH 8.0, 50 mM KCl, 1 mM 2-mercaptoethanol, and the indicated concentration of detergent or other additive. Where possible, only reactions which incorporated 20- 100 pmol of dAMP in 10 minutes were used for calculation of activity.

[2] = biological target: T2, Taq Δ271 F667Y E681W (polymerase B) (Thermus aquaticus, UniProt P19821, E681W/F272M/F667Y); assay: DNA polymerase activity assay with detergent or additive, Taq Δ271 F667Y E681W purified without detergent
T2 construct: made in house; host or cells: E. coli
Procedure: as §1, §2

[3] = biological target: T3, Taq Δ271 F667Y (polymerase A) (Thermus aquaticus, UniProt P19821, F272M/F667Y); assay: DNA polymerase activity assay with detergent or additive, Taq Δ271 F667Y purified without detergent
T3 construct: made in house; host or cells: E. coli
Procedure: as §1, §2

[4] = additive final concentration 0.01% (w/v)
[5] = additive final concentration 0.05% (w/v)
[6] = additive final concentration 0.1% (w/v)
[7] = additive final concentration 0.001% (w/v) in assay reaction mixture
[8] = additive final concentration 0.5% (w/v)
[9] = additive final concentration 0.85% (w/v)
[10] = additive final concentration 60 μg/ml
[11] = additive final concentration 20 μg/ml
[12] = additive final concentration 100 μg/ml

T2 sequence (P19821 272-832 F272M/F667Y/E681W): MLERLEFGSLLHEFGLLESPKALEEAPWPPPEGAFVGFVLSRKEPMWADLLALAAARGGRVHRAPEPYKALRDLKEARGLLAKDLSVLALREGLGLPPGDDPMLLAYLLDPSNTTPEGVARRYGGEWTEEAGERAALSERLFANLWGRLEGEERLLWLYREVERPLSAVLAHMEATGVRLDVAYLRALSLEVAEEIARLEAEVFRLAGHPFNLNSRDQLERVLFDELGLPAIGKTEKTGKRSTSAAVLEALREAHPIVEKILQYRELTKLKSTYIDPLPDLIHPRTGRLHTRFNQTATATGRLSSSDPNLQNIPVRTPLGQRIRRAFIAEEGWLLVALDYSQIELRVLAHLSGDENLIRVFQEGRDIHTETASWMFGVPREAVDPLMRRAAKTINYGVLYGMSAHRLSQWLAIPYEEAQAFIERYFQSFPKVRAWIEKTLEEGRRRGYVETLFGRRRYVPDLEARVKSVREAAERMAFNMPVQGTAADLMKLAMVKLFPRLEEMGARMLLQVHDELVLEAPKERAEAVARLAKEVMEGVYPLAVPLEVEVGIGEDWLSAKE
T3 sequence (P19821 272-832 F272M/F667Y): as the sequence (P19821 272-832 F272M/F667Y/E681W) above, with W410E counted along it
T1 sequence (P52028 274-834 F274M/F669Y): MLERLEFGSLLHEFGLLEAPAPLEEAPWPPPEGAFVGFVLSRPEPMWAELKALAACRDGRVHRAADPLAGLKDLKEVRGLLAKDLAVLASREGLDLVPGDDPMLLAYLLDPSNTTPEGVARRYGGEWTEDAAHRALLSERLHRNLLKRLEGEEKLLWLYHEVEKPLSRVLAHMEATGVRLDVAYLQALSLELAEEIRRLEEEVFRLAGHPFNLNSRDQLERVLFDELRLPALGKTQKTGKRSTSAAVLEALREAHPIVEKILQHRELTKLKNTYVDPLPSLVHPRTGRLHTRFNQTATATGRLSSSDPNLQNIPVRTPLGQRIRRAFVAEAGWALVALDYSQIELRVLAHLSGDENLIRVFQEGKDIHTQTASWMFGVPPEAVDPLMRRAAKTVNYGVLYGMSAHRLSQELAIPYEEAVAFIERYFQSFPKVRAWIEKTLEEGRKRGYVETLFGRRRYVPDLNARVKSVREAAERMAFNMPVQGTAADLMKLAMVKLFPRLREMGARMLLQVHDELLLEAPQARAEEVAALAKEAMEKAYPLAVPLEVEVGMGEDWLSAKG

| Molecule | Tth Δ273 F668Y activity relative to 0.5% each NP-40 and Tween 20 [1, 4] | Tth Δ273 F668Y activity relative to 0.5% each NP-40 and Tween 20 [1, 5] | Tth Δ273 F668Y activity relative to 0.5% each NP-40 and Tween 20 [1, 6] | Taq Δ271 F667Y E681W activity relative to 0.5% each NP-40 and Tween 20 [2, 4] | Taq Δ271 F667Y E681W activity relative to 0.5% each NP-40 and Tween 20 [2, 5] | Taq Δ271 F667Y E681W activity relative to 0.5% each NP-40 and Tween 20 [2, 6] | Taq Δ271 F667Y activity relative to 0.5% each NP-40 and Tween 20 [3, 4] | Taq Δ271 F667Y activity relative to 0.5% each NP-40 and Tween 20 [3, 5] | Taq Δ271 F667Y activity relative to 0.5% each NP-40 and Tween 20 [3, 6] | also measured |
| --- | --- | --- | --- | --- | --- | --- | --- | --- | --- | --- |
| C[C@H](CCC(=O)NCCC[N+](C)(C)CCCS(=O)(=O)[O-])[C@H]1CC[C@H]2[C@@H]3[C@H](O)C[C@@H]4C[C@H](O)CC[C@]4(C)[C@H]3C[C@H](O)[C@]12C [CHAPS, 3-[(3-Cholamidopropyl)dimethylammonio]-1-propanesulfonate] | − (Activity 50-60%) | − − (Activity 20-50%) | − − (Activity 20-50%) | − − − (Activity < 20%) | − − (Activity 20-50%) | − (Activity 50-60%) | − − (Activity 20-50%) | − (Activity 50-60%) | + (Activity 60-70%) | – |
| C[C@H](CCC(=O)NCCC[N+](C)(C)CC(O)CS(=O)(=O)[O-])[C@H]1CC[C@H]2[C@@H]3[C@H](O)C[C@@H]4C[C@H](O)CC[C@]4(C)[C@H]3C[C@H](O)[C@]12C (stereo partly drawn) [CHAPSO, 3-[(3-Cholamidopropyl)dimethylammonio]-2-hydroxy-1-propanesulfonate] | − (Activity 50-60%) | − − (Activity 20-50%) | − − (Activity 20-50%) | − − − (Activity < 20%) | − − (Activity 20-50%) | − − (Activity 20-50%) | − − − (Activity < 20%) | − − (Activity 20-50%) | + (Activity 60-70%) | – |
| CC1=NCC[C@@H](C(=O)O)N1 [Ectoin] | − − − (Activity < 20%) | – | − − − (Activity < 20%) | − − − (Activity < 20%) | – | − − − (Activity < 20%) | − − − (Activity < 20%) | – | − − − (Activity < 20%) | Tth Δ273 F668Y activity relative to 0.5% each NP-40 and Tween 20 [1, 7]: − − − (Activity < 20%); Taq Δ271 F667Y E681W activity relative to 0.5% each NP-40 and Tween 20 [2, 7]: − − − (Activity < 20%); Taq Δ271 F667Y activity relative to 0.5% each NP-40 and Tween 20 [3, 7]: − − − (Activity < 20%) |
| CC1=NC[C@H](O)[C@@H](C(=O)O)N1 [Hydroxyectoin] | − − − (Activity < 20%) | − − − (Activity < 20%) | – | − − − (Activity < 20%) | − − − (Activity < 20%) | – | − − − (Activity < 20%) | − − − (Activity < 20%) | – | – |
| CCCCCCCC(=O)N(C)C[C@H](O)[C@@H](O)[C@H](O)[C@H](O)CO [Mega-8, Ocatanoyl-N-mehtylglucamide] | – | – | + + (Activity 70-80%) | − − − (Activity < 20%) | – | − (Activity 50-60%) | – | – | + + (Activity 70-80%) | Tth Δ273 F668Y activity relative to 0.5% each NP-40 and Tween 20 [1, 8]: + (Activity 60-70%); Tth Δ273 F668Y activity relative to 0.5% each NP-40 and Tween 20 [1, 9]: + (Activity 60-70%); Polymerase C Activity (%) ([1]; detergent 0.5% (w/v)): 84.5%; Taq Δ271 F667Y E681W activity relative to 0.5% each NP-40 and Tween 20 [2, 7]: − − − (Activity < 20%); Taq Δ271 F667Y E681W activity relative to 0.5% each NP-40 and Tween 20 [2, 8]: + + + (Activity > 80% (relative to activity using 0.5% each NP-40 and Tween 20)); Taq Δ271 F667Y E681W activity relative to 0.5% each NP-40 and Tween 20 [2, 9]: − − (Activity 20-50%); Polymerase B Activity (%) ([2]; detergent 0.5% (w/v)): 71%; Taq Δ271 F667Y activity relative to 0.5% each NP-40 and Tween 20 [3, 9]: + (Activity 60-70%); Polymerase A Activity (%) ([3]; detergent 0.5% (w/v)): 76.6% |
| CCCCCCCCC(=O)N(C)C[C@H](O)[C@@H](O)[C@H](O)[C@H](O)CO [Mega-9, Nonyl-N-methylglucamide] | − − (Activity 20-50%) | + + + (Activity > 80% (relative to activity using 0.5% each NP-40 and Tween 20)) | – | − − − (Activity < 20%) | + + (Activity 70-80%) | – | − − − (Activity < 20%) | − − (Activity 20-50%) | – | Polymerase C Activity (%) ([1]; detergent 0.05% (w/v)): 74%; Polymerase B Activity (%) ([2]; detergent 0.05% (w/v)): 82%; Polymerase A Activity (%) ([3]; detergent 0.05% (w/v)): 71.2% |
| CCCCCCCCCC(=O)N(C)C[C@H](O)[C@@H](O)[C@H](O)[C@H](O)CO [Mega-10, D-decanoyl-N-methyl glucamide] | + + (Activity 70-80%) | − − (Activity 20-50%) | – | − − − (Activity < 20%) | + + + (Activity > 80% (relative to activity using 0.5% each NP-40 and Tween 20)) | – | − − (Activity 20-50%) | + + (Activity 70-80%) | – | Tth Δ273 F668Y activity relative to 0.5% each NP-40 and Tween 20 [1, 7]: − − (Activity 20-50%); Polymerase C Activity (%) ([1]; detergent 0.05% (w/v)): 100%; Polymerase B Activity (%) ([2]; detergent 0.05% (w/v)): 73%; Taq Δ271 F667Y activity relative to 0.5% each NP-40 and Tween 20 [3, 7]: − − − (Activity < 20%); Polymerase A Activity (%) ([3]; detergent 0.05% (w/v)): 94% |
| CCCCCCCCO[C@@H]1O[C@H](CO)[C@H](O)[C@H](O)[C@H]1O [N-octyl β-D-galactopyranoside] | − − (Activity 20-50%) | + + + (Activity > 80% (relative to activity using 0.5% each NP-40 and Tween 20)) | – | − − − (Activity < 20%) | – | − (Activity 50-60%) | − − − (Activity < 20%) | − − (Activity 20-50%) | – | Tth Δ273 F668Y activity relative to 0.5% each NP-40 and Tween 20 [1, 7]: − − (Activity 20-50%); Taq Δ271 F667Y E681W activity relative to 0.5% each NP-40 and Tween 20 ([2]; additive final concentration 0.25% (w/v)): + (Activity 60-70%); Taq Δ271 F667Y E681W activity relative to 0.5% each NP-40 and Tween 20 [2, 8]: − − − (Activity < 20%); Taq Δ271 F667Y activity relative to 0.5% each NP-40 and Tween 20 [3, 7]: − − − (Activity < 20%) |
| CCCCCCCCCCCCCC[N+](C)(C)CCCS(=O)(=O)[O-] [Zwittergent 3-14] | – | – | – | − − − (Activity < 20%) | – | – | – | – | – | – |
| Bovine Serum Albumin (BSA): Bovine Serum Albumin | – | – | – | – | – | – | – | – | – | Tth Δ273 F668Y activity relative to 0.5% each NP-40 and Tween 20 [1, 10]: − − (Activity 20-50%); Taq Δ271 F667Y activity relative to 0.5% each NP-40 and Tween 20 [3, 10]: − (Activity 50-60%) |
| E. coli Single-Stranded DNA Binding Protein: E. coli Single-Stranded DNA Binding Protein | – | – | – | – | – | – | – | – | – | Tth Δ273 F668Y activity relative to 0.5% each NP-40 and Tween 20 [1, 11]: − − − (Activity < 20%); Tth Δ273 F668Y activity relative to 0.5% each NP-40 and Tween 20 [1, 12]: − − − (Activity < 20%) |
| gelatin | – | – | – | – | – | – | – | – | – | Tth Δ273 F668Y activity relative to 0.5% each NP-40 and Tween 20 ([1]; additive final concentration 50 μg/ml): − − − (Activity < 20%) |
| B1 | – | – | – | – | – | – | – | – | – | Tth Δ273 F668Y activity relative to 0.5% each NP-40 and Tween 20 [1, 11]: − − − (Activity < 20%); Tth Δ273 F668Y activity relative to 0.5% each NP-40 and Tween 20 [1, 12]: − − − (Activity < 20%) |
